Patent US9587225B2, “Low-molecular-compound for improving production, maintenance and proliferation of pluripotent stem cells, composition comprising the same, and culture method” (KOREA RESEARCH INSTITUTE OF BIOSCIENCE AND BIOTECHNOLOGY, priority 2012, dated 2017)

Test system: Mouse embryonic fibroblasts (OG2-MEF; hemizygous for the Oct4-GFP transgene)
Assay: Reprogramming of mouse embryonic fibroblasts, Oct4-GFP colony count
Assay type: cell-based
Conditions: OG2-MEF transfected with OSKM, after 15 days, compared to control group
Method: FIG. 1 is a process of screening mouse cell reprogramming factors using analog library screening of novel trans-3-indoleacrylic acid-based compounds. In order to screen low-molecular-weight compounds that promote the production of reprogrammed stem cells, mouse embryonic stem cells (OG2-MEF; hemizygous for the Oct4-GFP transgene) were transduced with reprogramming viruses (Oct4, Sox2, Klf4, and c-Myc). After 5 days, the cells were seeded on gelatin-coated plates and then cultured in mouse embryonic stem cell culture media containing each of low-molecular-weight compounds until colonies having a morphology similar to that of mouse embryonic stem cells were formed. After 15 days, the number of colonies expressing endogenous Oct4 GFP fluorescence was measured, and compounds that increased the efficiency of reprogramming compared to that of a control group were selected. […] Oct4 (O), Sox2 (S), Klf4 (K), and cMyc (M). FIG. 1B is a graph showing the increase in efficiency of reprogramming by RSC-133 and ID-558 among screened compounds. The values shown on the graph are mean values. The data are expressed as mean±SD (n=3).
The OSKM reprogramming factor virus was produced according to the method of Example 3. […] At 15 days after the transfection, the number of either colonies showing AP activity or colonies expressing endogenous Oct4 GFP fluorescence was measured to determine the efficiency of reprogramming.
To discover low-molecular-weight compounds that are involved in the reprogramming process, analog library screening of novel trans-3-indoleacrylic acid-based compounds was performed in mouse cells. Mouse embryonic fibroblasts (OG2-MEF: hemizygous for the Oct4-GFP transgene) were transfected with reprogramming viruses of Oct4, Sox2, Klf4 and c-Myc (OSKM), and after 5 days, the cells were seeded on gelatin-coated 12-well plates and incubated with mouse embryonic stem cell culture medium containing each of low-molecular-weight compounds until colonies having a morphology similar to that mouse stem cells were formed so that endogenous Oct4 GFP fluorescence was expressed (FIG. 1A). […]

CN(C)C(=O)c1ccc(O)c(NC(=O)C=Cc2c[nH]c3ccccc23)c1 [ID-558, 3-[3-(1H-indol-3-yl)-acrylamido]-4-hydroxy-N,N-dimethylbenzamide] was tested, and the “efficiency of reprogramming (number of colonies expressing endogenous Oct4 GFP fluorescence)” value was “showed the effect of increasing the efficiency of reprogramming”.
